Test results from PMC9537510, “Reduction of stress responses in honey bees by synthetic ligands targeting an allatostatin receptor” (Scientific Reports, 2022).

Key:
Type in all cases: cell-based
[1] = target: T1, allatostatin A receptor (ASTA-R) (Apis mellifera, UniProt A0A7M7ILT1); experiment: reversal of ASTA inhibition of forskolin-induced cAMP in ASTA-R-expressing cells; also weak competition binding (IC50 > […])
T1 construct: gene LOC413582; receptor expressed in transfected HEK293T cells (NCBI: XP_006560262.1 used for the model)
T1 sequence (A0A7M7ILT1 1-361): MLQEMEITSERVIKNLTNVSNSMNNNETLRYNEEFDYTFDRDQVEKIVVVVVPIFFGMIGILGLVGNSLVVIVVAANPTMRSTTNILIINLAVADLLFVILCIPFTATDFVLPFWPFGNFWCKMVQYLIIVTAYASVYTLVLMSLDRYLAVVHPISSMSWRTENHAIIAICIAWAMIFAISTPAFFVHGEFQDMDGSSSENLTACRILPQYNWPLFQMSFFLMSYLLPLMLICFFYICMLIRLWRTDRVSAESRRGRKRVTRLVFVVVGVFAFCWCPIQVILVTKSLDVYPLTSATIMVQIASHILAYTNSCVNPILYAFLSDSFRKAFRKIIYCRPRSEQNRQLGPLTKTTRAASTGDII

[2] = target: T1, allatostatin A receptor (ASTA-R); experiment: competition binding with fluorescence-labeled ASTA on ASTA-R-transfected HEK cells; also cAMP antagonism
[3] = target: T1, allatostatin A receptor (ASTA-R); experiment: competition binding with fluorescence-labeled ASTA on ASTA-R-transfected HEK cells

Cc1ccc(-n2cncn2)c(NC(=O)CSCCCc2ccccc2)c1 [B6, N-(5-methyl-2-(1H-1,2,4-triazol-1-yl)phenyl)-2-(phenypropylthio)acetamide]
reversal of ASTA inhibition of forskolin-induced cAMP in ASTA-R-expressing cells [1]: both B5 and B6 act as ASTA antagonists by interacting with ASTA-R

Cc1ccc(-n2cncn2)c(NC(=O)CSCCc2ccccc2)c1 [B5, N-(5-methyl-2-(1H-1,2,4-triazol-1-yl)phenyl)-2-(phenethylthio)acetamide]
IC50 [2]: > 10 µM

O=C(CSCCCc1ccccc1)Nc1cc(C(F)(F)F)ccc1-n1cncn1 [B3, N-(2-(1H-1,2,4-triazol-1-yl)-5-(trifluoromethyl)phenyl)-2-((3-phenylpropyl)thio)acetamide]
IC50 [3]: > 10 µM
